Test results from ChEMBL document CHEMBL1201862, “PubChem BioAssay data set” (2004).
Calls of active or inactive are those of the source. Unless noted, the calls are words filed in the database; no cut-off is given here.

Legend:
Format in all cases: functional
Mu-type opioid receptor [1] = biological target: T1, Mu-type opioid receptor (Homo sapiens, UniProt P35372); experiment: SAR Analysis of Agonists of the MOR Receptor using an Image-Based Assay - Set 2. [Related pubchem assays (depositor defined):AID1777, AID1785, AID1786, AID1966, AID2133, AID2136, AID2284, AID2285, AID2352]
T1 sequence (P35372 whole entry): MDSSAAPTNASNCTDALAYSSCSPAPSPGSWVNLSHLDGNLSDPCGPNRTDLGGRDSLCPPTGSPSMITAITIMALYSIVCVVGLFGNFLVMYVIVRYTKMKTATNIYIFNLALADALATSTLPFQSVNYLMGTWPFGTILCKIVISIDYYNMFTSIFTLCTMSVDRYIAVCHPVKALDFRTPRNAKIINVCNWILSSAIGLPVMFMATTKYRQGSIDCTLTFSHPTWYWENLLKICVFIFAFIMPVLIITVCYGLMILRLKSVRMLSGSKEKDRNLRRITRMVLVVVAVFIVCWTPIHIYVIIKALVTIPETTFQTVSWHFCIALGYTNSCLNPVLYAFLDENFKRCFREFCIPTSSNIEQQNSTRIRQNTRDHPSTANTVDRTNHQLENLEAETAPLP

[2] = biological target: T2, Kappa-type opioid receptor (Homo sapiens, UniProt P41145); experiment: SAR analysis of small molecule agonists of the kappa opioid receptor via a luminescent beta-arrestin assay - Set 2. [Related pubchem assays (depositor defined):AID1777, AID1785, AID1786, AID1966, AID2133, AID2136, AID2284, AID449737]
T2 sequence (P41145 whole entry): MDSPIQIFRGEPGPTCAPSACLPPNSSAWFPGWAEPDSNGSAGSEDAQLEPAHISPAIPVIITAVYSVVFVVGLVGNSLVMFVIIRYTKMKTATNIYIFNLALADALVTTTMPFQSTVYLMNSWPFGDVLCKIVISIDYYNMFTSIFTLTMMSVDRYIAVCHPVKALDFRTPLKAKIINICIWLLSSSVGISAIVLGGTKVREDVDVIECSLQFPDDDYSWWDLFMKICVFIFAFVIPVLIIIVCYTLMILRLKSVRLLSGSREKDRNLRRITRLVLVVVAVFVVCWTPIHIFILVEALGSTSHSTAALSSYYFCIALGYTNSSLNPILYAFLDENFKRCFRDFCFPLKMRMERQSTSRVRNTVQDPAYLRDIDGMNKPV

[3] = biological target: T3, Delta-type opioid receptor (Homo sapiens, UniProt P41143); experiment: SAR Analysis of Agonists of the DOR Receptor using an Image-Based Assay - Set 2. [Related pubchem assays (depositor defined):AID1777, AID1785, AID1786, AID1966, AID2133, AID2136, AID2284, AID2285, AID2370]
T3 sequence (P41143 whole entry): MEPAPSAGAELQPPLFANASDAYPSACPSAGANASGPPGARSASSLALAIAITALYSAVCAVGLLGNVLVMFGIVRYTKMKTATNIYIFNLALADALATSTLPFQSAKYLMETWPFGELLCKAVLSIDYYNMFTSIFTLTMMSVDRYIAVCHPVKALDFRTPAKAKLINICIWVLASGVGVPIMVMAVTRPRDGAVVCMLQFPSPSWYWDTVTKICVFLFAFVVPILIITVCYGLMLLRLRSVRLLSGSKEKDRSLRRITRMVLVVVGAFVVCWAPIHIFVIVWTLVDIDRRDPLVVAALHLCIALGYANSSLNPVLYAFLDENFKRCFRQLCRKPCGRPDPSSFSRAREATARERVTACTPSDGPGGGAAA

[4] = biological target: T2, Kappa-type opioid receptor; experiment: SAR analysis of Agonists of the Kappa Opioid Receptor (KOR) using an Image-Based Assay - Set 2. [Related pubchem assays (depositor defined):AID1777, AID1786, AID1966, AID2133, AID2136, AID2284, AID2285, AID2359]
[5] = biological target: T3, Delta-type opioid receptor; experiment: SAR Analysis of Antagonists of the DOR Receptor using an Image-Based Assay - Set 2. [Related pubchem assays (depositor defined):AID1777, AID1785, AID1786, AID1966, AID2133, AID2136, AID2284, AID2285, AID2357]
[6] = biological target: T2, Kappa-type opioid receptor; experiment: SAR analysis of Antagonists of the Kappa Opioid Receptor (KOR) using an Image-Based Assay - Set 2. [Related pubchem assays (depositor defined):AID1777, AID1785, AID1786, AID1966, AID2133, AID2136, AID2284, AID2285, AID2348]
Mu-type opioid receptor [7] = biological target: T1, Mu-type opioid receptor; experiment: SAR Analysis of Antagonists of the MOR Receptor using an Image-Based Assay - Set 2. [Related pubchem assays (depositor defined):AID1777, AID1785, AID1786, AID1966, AID2133, AID2136, AID2284, AID2285, AID2420]
[8] = biological target: Intestinal-type alkaline phosphatase (Homo sapiens, UniProt P09923); experiment: inhibition of human intestinal alkaline phosphatase – biochemical, dose response (AID 488876)
Intestinal-type alkaline phosphatase (Homo sapiens, UniProt P09923), sequence (P09923 whole entry): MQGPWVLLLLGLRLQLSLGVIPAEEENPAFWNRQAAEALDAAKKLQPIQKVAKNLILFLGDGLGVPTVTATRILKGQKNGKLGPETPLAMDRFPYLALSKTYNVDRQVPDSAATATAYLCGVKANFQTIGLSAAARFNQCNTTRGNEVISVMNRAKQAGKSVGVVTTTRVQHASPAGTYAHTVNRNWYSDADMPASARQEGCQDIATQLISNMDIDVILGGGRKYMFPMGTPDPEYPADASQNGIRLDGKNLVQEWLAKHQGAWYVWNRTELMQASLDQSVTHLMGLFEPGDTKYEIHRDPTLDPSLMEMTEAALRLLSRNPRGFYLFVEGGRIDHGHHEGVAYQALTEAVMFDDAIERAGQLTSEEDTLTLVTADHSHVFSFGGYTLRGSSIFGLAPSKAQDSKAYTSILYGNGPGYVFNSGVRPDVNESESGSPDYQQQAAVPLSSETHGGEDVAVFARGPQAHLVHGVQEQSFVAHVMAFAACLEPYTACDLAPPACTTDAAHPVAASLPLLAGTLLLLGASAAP

[9] = biological target: Intestinal-type alkaline phosphatase (Mus musculus, UniProt P24822); experiment: PubChem AID 488785
Intestinal-type alkaline phosphatase (Mus musculus, UniProt P24822), sequence (P24822 whole entry): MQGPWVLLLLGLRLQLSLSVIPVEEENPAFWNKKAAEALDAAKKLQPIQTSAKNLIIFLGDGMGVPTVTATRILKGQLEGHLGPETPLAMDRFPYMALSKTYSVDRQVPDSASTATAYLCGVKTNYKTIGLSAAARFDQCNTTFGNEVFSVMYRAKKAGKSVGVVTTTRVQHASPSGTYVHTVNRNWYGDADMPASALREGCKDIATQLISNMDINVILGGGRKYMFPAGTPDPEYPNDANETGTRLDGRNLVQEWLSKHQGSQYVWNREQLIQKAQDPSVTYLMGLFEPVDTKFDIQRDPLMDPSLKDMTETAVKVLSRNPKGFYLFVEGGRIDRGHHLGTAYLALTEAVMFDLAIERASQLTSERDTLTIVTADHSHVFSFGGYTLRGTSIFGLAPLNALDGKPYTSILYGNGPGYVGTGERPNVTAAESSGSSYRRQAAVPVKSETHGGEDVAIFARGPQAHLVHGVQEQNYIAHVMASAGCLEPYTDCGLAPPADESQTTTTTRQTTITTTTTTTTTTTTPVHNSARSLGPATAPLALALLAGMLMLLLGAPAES

[10] = biological target: T4, Heat shock factor protein 1 (Mus musculus, UniProt P38532); experiment: inhibition of MG132-induced HSE-luciferase signal, confirmation, cell-based, NIH3T3, luminescence, dose retest (AID 2382);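 further: NIH3T3 fibroblasts with HSF1-driven luciferase reporter stressed by proteasome inhibitor MG132; luminescence from HSF1-driven luciferase expression after 8 hours of MG132 stress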
T4 sequence (P38532 whole entry): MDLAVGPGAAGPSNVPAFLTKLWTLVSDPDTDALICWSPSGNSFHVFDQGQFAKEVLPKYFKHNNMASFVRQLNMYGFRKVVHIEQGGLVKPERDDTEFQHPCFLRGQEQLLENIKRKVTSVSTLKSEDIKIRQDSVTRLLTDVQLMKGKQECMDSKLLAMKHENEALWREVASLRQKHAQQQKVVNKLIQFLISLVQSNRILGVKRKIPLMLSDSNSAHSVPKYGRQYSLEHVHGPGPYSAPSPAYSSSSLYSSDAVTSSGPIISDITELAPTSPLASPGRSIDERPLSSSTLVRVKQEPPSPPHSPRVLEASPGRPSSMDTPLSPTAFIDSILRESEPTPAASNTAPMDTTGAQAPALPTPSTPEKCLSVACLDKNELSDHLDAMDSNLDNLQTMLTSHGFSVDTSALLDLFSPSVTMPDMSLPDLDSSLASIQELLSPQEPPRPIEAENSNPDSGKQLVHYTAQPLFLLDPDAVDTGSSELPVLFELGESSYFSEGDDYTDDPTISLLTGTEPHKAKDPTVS

[11] = biological target: T5, Alkaline phosphatase, tissue-nonspecific isozyme (Homo sapiens, UniProt P05186); experiment: TNAP enzyme inhibition by screening hits, dose response, selectivity assay for mouse IAP inhibitor project, biochemical, human TNAP, uHTS hits (AID 488906)
T5 sequence (P05186 whole entry): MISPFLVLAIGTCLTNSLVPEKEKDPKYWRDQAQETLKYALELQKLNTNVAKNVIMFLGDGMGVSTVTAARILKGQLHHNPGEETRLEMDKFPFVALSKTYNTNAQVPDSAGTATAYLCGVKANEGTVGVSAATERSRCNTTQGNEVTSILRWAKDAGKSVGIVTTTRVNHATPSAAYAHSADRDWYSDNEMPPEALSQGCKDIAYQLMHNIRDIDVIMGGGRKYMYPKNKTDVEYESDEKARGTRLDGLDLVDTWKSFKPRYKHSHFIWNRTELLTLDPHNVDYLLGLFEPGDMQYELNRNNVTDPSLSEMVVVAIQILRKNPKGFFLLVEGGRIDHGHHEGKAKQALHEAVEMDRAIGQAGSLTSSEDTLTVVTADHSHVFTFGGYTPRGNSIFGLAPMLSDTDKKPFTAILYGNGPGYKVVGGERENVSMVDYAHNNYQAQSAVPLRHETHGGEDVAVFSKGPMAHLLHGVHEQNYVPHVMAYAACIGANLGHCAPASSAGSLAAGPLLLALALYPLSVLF

[12] = biological target: Voltage-dependent T-type calcium channel subunit alpha-1H (Homo sapiens, UniProt O95180); experiment: Cav3.2 T-type channel blockers, cell-based, SynthLib3 library, HEK293 Cav3.2, fluorescence (AID 493041)
Voltage-dependent T-type calcium channel subunit alpha-1H, sequence (O95180 whole entry): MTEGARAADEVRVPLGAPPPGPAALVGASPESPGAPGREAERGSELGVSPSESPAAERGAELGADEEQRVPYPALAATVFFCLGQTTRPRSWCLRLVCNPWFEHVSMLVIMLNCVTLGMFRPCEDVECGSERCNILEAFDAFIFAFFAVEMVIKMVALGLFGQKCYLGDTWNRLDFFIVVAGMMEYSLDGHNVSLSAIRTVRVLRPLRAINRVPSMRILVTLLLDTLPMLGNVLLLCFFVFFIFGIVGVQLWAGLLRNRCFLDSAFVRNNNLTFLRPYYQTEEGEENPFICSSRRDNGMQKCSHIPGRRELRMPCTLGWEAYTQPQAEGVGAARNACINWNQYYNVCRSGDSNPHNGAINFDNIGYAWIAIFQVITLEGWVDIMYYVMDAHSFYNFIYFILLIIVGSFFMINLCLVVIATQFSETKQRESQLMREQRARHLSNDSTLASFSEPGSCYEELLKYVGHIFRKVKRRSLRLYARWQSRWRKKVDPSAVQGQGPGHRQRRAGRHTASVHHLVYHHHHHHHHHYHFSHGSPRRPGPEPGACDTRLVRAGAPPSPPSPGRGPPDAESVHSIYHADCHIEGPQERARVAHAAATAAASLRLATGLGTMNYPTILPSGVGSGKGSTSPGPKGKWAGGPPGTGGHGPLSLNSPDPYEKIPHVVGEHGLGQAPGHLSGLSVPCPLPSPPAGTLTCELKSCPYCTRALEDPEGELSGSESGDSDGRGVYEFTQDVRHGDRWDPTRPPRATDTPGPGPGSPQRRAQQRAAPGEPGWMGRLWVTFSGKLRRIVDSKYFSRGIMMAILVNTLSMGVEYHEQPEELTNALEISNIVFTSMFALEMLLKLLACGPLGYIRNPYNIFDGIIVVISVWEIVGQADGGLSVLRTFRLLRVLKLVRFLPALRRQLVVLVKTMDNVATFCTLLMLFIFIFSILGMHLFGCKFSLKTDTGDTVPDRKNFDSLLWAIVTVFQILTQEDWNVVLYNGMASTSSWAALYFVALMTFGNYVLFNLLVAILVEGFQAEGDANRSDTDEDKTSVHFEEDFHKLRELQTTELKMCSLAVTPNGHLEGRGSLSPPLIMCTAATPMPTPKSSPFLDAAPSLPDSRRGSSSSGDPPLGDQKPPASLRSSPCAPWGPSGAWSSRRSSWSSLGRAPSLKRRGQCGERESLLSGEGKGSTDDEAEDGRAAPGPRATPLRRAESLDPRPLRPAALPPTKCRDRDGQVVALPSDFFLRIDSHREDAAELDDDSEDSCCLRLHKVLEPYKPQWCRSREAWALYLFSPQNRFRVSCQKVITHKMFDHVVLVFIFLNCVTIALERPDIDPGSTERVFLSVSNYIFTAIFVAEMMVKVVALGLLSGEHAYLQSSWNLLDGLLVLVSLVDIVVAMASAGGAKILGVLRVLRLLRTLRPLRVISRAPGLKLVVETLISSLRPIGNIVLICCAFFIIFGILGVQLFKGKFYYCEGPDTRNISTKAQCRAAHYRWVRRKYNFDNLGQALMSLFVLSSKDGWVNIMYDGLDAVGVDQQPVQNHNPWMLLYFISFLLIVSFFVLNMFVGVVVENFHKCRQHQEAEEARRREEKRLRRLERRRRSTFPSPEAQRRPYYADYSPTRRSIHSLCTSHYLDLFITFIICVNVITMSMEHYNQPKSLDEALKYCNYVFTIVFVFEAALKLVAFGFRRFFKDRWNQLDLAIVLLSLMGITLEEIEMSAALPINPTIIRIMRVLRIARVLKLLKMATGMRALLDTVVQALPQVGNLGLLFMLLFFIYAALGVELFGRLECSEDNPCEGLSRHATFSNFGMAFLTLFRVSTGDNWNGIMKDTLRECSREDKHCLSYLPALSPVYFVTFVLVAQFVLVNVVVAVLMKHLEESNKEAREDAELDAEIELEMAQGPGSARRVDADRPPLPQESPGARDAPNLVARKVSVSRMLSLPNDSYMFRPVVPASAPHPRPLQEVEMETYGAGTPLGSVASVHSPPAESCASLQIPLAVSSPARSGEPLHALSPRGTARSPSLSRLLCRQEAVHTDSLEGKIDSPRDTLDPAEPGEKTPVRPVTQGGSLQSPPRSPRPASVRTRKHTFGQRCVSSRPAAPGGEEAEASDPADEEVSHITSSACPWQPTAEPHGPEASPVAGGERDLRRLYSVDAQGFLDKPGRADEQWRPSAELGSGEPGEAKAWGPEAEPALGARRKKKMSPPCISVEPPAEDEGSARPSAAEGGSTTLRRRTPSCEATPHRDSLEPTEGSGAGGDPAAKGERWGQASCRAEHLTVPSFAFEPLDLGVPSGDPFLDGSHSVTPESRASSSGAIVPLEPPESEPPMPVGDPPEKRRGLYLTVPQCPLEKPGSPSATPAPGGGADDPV

c1ccc(CSc2nnc(-c3ccccn3)n2Cc2cccs2)cc1
EC50 (Mu-type opioid receptor [1]): > 32 µM (inactive)
EC50 [2]: 13.9 µM (inactive)
EC50 [3]: > 32 µM (inactive)
EC50 [4]: 23.5 µM (inactive)
IC50 [5]: > 32 µM (inactive)
IC50 [6]: > 32 µM (inactive)
IC50 (Mu-type opioid receptor [7]): > 32 µM (inactive)

CCn1cc(CN2CCC(C(=O)Nc3cccc(-c4cccc(Cl)c4)c3)CC2)c(C)n1
IC50 [8]: > 100 µM (inactive)
IC50 [9]: 12.8 µM (active)
EC50 [10]: > 195 µM (not active)
IC50 [11]: > 100 µM (inactive)

CC(C)(C)CCN1C[C@@H]2C(CNC(=O)c3cc(Cl)cc(Cl)c3)[C@@H]2C1 (some centres not stated)
EC50 [12]: 0.17 µM (active)
